Measurements published in patent US20210221785A1, “AMINO-PYRIMIDONYL DERIVATIVES, A PROCESS FOR THEIR PREPARATION AND PHARMACEUTICAL COMPOSITIONS CONTAINING THEM” (LES LABORATOIRES SERVIER, priority 2018, published 2021).

Columns and labels:
[1] = target: T1, His-His-USP7 (aa208-560, |C315A|) (Homo sapiens, UniProt Q93009, C315A); assay: Evaluation of the inhibition of USP7 by the Fluorescence Intensity (FLINT) readings; type: biochemical; conditions: 0.25 nM His-His-USP7, compound incubated 60 minutes at 30° C., 500 nM Ubiquitin-Rhodamine-110 substrate; 50% reduction in kinetic rate
T1 construct: His-His-USP7 (aa208-560, |C315A|); His-His (N)
Method in brief: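 0.25 nM His-His-USP7 (aa208–560, C315A) preincubated 60 min at 30 °C with compound in 100 mM Bicine pH 8.0, 0.01% Triton X-100, 1 mM TCEP, 10% DMSO. Reaction started with 500 nM ubiquitin-rhodamine-110 and fluorescence (Ex485/Em535) read every 3 min for 21 min. IC50 derived from kinetic-rate reduction over an 11-point curve, 4-parameter fit.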

[2] = test system: Z138 mantle cell lymphoma tumour cell lines; assay: In vitro cytotoxicity, MTT assay; type: cell-based; conditions: Homo sapiens, Z-138, 96 h, Z138 cells exposed to the test compounds for 96 hours; cell viability vs DMSO treated cells
Method in brief: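 Z138 cells exposed to compounds for 96 hours, then MTT added for 4 hours. Viable cells quantified from formazan absorbance at 540 nm.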

T1 sequence (Q93009 208-560 C315A): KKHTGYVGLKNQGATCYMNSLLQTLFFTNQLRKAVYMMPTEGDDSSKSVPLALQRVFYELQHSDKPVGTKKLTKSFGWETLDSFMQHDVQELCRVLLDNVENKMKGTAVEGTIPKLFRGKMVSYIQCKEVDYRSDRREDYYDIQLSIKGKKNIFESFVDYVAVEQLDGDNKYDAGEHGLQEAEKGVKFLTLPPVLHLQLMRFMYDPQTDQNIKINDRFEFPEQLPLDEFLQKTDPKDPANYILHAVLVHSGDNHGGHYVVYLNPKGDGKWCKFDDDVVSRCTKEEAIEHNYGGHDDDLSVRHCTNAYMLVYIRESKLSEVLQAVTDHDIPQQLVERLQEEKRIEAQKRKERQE

IC50 [1]	Structure (SMILES)	IC50 [2]
28 nM	Nc1c(Oc2ccc(Cl)c(O)c2)ncn(CC2(O)CCN(C(=O)[C@@H]3CCC(F)(F)C[C@H]3c3ccccc3)CC2)c1=O [Example 110, 5-amino-6-(4-chloro-3-hydroxyphenoxy)-3({1-[(1R,2R)-4,4-difluoro-2-phenylcyclohexane-1-carbonyl]-4-hydroxypiperidin-4-yl}methyl)pyrimidin-4(3H)-one]	0.0254 µM
22.1 nM	Cc1ccc(Oc2ncn(CC3(O)CCN(C(=O)[C@@H]4CCC(F)(F)C[C@H]4c4ccccc4)CC3)c(=O)c2N)cc1O [Example 111, 5-amino-3-({1-[(1R,2R)-4,4-difluoro-2-phenylcyclohexane-1-carbonyl]-4-hydroxypiperidin-4-yl}methyl)-6-(3-hydroxy-4-methylphenoxy)pyrimidin-4(3H)-one]	0.0588 µM
37.2 nM	Nc1c(Oc2cccc(C3CNCCO3)c2)ncn(CC2(O)CCN(C(=O)[C@@H]3CCC(F)(F)C[C@H]3c3ccccc3)CC2)c1=O (stereo partly drawn) [Example 115, 5-amino-3-([1-[(1R,2R)-4,4-difluoro-2-phenylcyclohexane-1-carbonyl]-4-hydroxypiperidin-4-yl]methyl)-6-[3-(morpholin-2-yl)phenoxy]pyrimidin-4(3H)-one]	0.85 µM
82.2 nM	N#CCc1ccc(Oc2ncn(CC3(O)CCN(C(=O)[C@@H]4CCC(F)(F)C[C@H]4c4ccccc4)CC3)c(=O)c2N)cc1 [Example 117, (4-{[5-amino-1-({1-[(1R,2R)-4,4-difluoro-2-phenylcyclohexane-1-carbonyl]-4-hydroxypiperidin-4-yl}methyl)-6-oxo-1,6-dihydropyrimidin-4-yl]oxy}phenyl)acetonitrile]	0.617 µM
33.1 nM	Nc1c(Oc2ccc(F)c(CO)c2)ncn(CC2(O)CCN(C(=O)[C@@H]3CCC(F)(F)C[C@H]3c3ccccc3)CC2)c1=O [Example 118, 5-amino-3-({1-[(1R,2R)-4,4-difluoro-2-phenylcyclohexane-1-carbonyl]-4-hydroxypiperidin-4-yl}methyl)-6-[4-fluoro-3-(hydroxymethyl)phenoxy]pyrimidin-4(3H)-one]	0.0413 µM
38 nM	Nc1cc(Oc2ncn(CC3(O)CCN(C(=O)[C@@H]4CCC(F)(F)C[C@H]4c4ccccc4)CC3)c(=O)c2N)ccc1F [Example 119, 5-amino-6-(3-amino-4-fluorophenoxy)-3-({1-[(1R,2R)-4,4-difluoro-2-phenylcyclohexane-1-carbonyl]-4-hydroxypiperidin-4-yl}methyl)pyrimidin-4(3H)-one]	0.0613 µM
16.3 nM	CC(C)c1ccc(Oc2ncn(CC3(O)CCN(C(=O)[C@@H]4CCC(F)(F)C[C@H]4c4ccccc4)CC3)c(=O)c2N)cc1O [Example 120, 5-amino-3-({1-[(1R,2R)-4,4-difluoro-2-phenylcyclohexane-1-carbonyl]-4-hydroxypiperidin-4-yl}methyl)-6-[3-hydroxy-4-(propan-2-yl)phenoxy]pyrimidin-4(3H)-one]	0.103 µM
3.08 nM	Nc1c(Oc2ccc(C3CCCCN3)cc2)ncn(CC2(O)CCN(C(=O)[C@@H]3CCC(F)(F)C[C@H]3c3ccccc3)CC2)c1=O (stereo partly drawn) [Example 121, 5-amino-3-({1-[(1R,2R)-4,4-difluoro-2-phenylcyclohexane-1-carbonyl]-4-hydroxypiperidin-4-yl}methyl)-6-[4-(piperidin-2-yl)phenoxy]pyrimidin-4(3H)-one]	0.546 µM
26.3 nM	C#C[C@]1(F)CC[C@@H](C(=O)N2CCC(O)(Cn3cnc(Oc4ccc(F)cc4)c(N)c3=O)CC2)[C@H](c2ccccc2)C1 [Example 122, 5-amino-3-({1-[(1R,2R,4S)-4-ethynyl-4-fluoro-2-phenylcyclohexanecarbonyl]-4-hydroxypiperidin-4-yl}methyl)-6-(4-fluorophenoxy)-3,4-dihydropyrimidin-4-one]	0.0374 µM
35.4 nM	C#C[C@@]1(F)CC[C@@H](C(=O)N2CCC(O)(Cn3cnc(Oc4ccc(F)cc4)c(N)c3=O)CC2)[C@H](c2ccccc2)C1 [Example 123, 5-amino-3-({1-[(1R,2R,4R)-4-ethynyl-4-fluoro-2-phenylcyclohexanecarbonyl]-4-hydroxypiperidin-4-yl}methyl)-6-(4-fluorophenoxy)-3,4-dihydropyrimidin-4-one]	0.0466 µM
17 nM	Nc1c(Oc2ccc(F)cc2)ncn(CC2(O)CCN(C(=O)[C@@H]3CC[C@](F)(C#Cc4cccnc4)C[C@H]3c3ccccc3)CC2)c1=O [Example 130, 5-amino-3-[(1-{[(1R,2R,4R)-4-fluoro-2-phenyl-4-[2-(pyridin-3-yl)ethynyl]cyclohexyl]carbonyl}-4-hydroxypiperidin-4-yl)methyl]-6-(4-fluorophenoxy)pyrimidin-4-one]	0.0144 µM
3.29 nM	Nc1c(Oc2ccc(F)cc2)ncn(CC2(O)CCN(C(=O)[C@@H]3CC[C@](F)(C#Cc4ccccn4)C[C@H]3c3ccccc3)CC2)c1=O [Example 132, 5-amino-3-[(1-{[(1R,2R4R)-4-fluoro-2-phenyl-4-[2-(pyridin-2-yl)ethynyl]cyclohexyl]carbonyl}-4-hydroxypiperidin-4-yl)methyl]-6-(4-fluorophenoxy)pyrimidin-4-one]	0.00214 µM
31.5 nM	Nc1c(Oc2ccc(F)cc2)ncn(CC2(O)CCN(C(=O)[C@@H]3CC[C@](F)(C#Cc4ccc(F)cn4)C[C@H]3c3ccccc3)CC2)c1=O [Example 133, 5-amino-3-[(1-{[(1R,2R4R)-4-fluoro-4-[2-(5-fluoropyridin-2-yl)ethynyl]-2-phenylcyclohexyl]carbonyl}-4-hydroxypiperidin-4-yl)methyl]-6-(4-fluorophenoxy)pyrimidin-4-one]	0.0187 µM
80.7 nM	Nc1c(Oc2ccc(F)cc2)ncn(CC2(O)CCN(C(=O)[C@@H]3CC[C@@](F)(C#Cc4ccc(F)cn4)C[C@H]3c3ccccc3)CC2)c1=O [Example 134, 5-amino-3-[(1-{[(1R,2R,4S)-4-fluoro-4-[2-(5-fluoropyridin-2-yl)ethynyl]-2-phenylcyclohexyl]carbonyl}-4-hydroxypiperidin-4-yl)methyl]-6-(4-fluorophenoxy)pyrimidin-4-one]	0.0309 µM
62.7 nM	Nc1c(Oc2ccc(F)cc2)ncn(CC2(O)CCN(C(=O)[C@@H]3CC[C@@](F)(C#Cc4cnccn4)C[C@H]3c3ccccc3)CC2)c1=O [Example 137, 5-amino-3-({1-[(1R42R,4S)-4-fluoro-2-phenyl-4-[2-(pyrazin-2-yl)ethynyl]cyclohexanecarbonyl]-4-hydroxypiperidin-4-yl}methyl)-6-(4-fluorophenoxy)-3,4-dihydropyrimidin-4-one]	0.0246 µM
20.3 nM	Nc1c(Oc2ccc(F)cc2)ncn(CC2(O)CCN(C(=O)[C@@H]3CC[C@](F)(C#Cc4cnccn4)C[C@H]3c3ccccc3)CC2)c1=O [Example 138, 5-amino-3-({1-[(1R,2R,4R)-4-fluoro-2-phenyl-4-[2-(pyrazin-2-yl)ethynyl]cyclohexanecarbonyl]-4-hydroxypiperidin-4-yl}methyl)-6-(4-fluorophenoxy)-3,4-dihydropyrimidin-4-one]	0.00657 µM
